According to patent US12152030B2 (NOVOSTAR PHARMACEUTICALS, LTD., priority 2019, dated 2024):
Structures can show the parent of a compound that is named as a salt.

Columns and labels:
[1] = biological target: MNK2 (Homo sapiens, UniProt Q9HBH9); assay: MNK biological enzyme assay (HTRF kinase assay), MNK2; assay type: biochemical; parameters: purchased ThermoFisher PV5607; details: 1 ng/μl MNK2, 1 μM STK1 peptide, 100 μM ATP
Experimental: (§1) A HTRF kinase assay kit (Cisbio, catalog number 62ST1PEB) was used to determine the MNK inhibitory activity of the compounds. All kinase reactions were performed in the reaction buffer (provided in the kit). The final MNK1 reaction involved 3 ng/ul recombinant MNK1 (ThermoFisher, PV6023), 1 μM MNK substrate peptide STK1 (provided in the kit), 100 μM ATP, and different concentrations of the inhibitory compounds of interest. The final MNK2 reaction involved 1 ng/μl recombinant MNK2 (ThermoFisher, PV5607), 1 μM MNK substrate peptide STK1 (provided in the kit), 100 μM ATP, and different concentrations of the inhibitory compounds of interest. The final DMSO concentration in each of the reactions was 1%.
(§2) The kinase reaction was performed in a final volume of 10 μl in a 384-well white flat-bottomed polystyrene plate. The MNK1/2 enzyme was pre-incubated with the compound and substrate peptide for 5 minutes, and then ATP was added thereto. After addition of ATP, the kinase reaction was incubated at 25° C. for 120 minutes or 60 minutes. The reaction was subsequently terminated by adding 5 μl of EU3+ substrate antibody detection reagent and 5 μl of XL665 detection reagent, and incubating for another 60 minutes. The luminescent signal was detected with an EnVision microplate reader counter (Perkin Elmer), and the signal from 10-point dilution series of the compounds was used to calculate the compound concentration (IC50) required to achieve 50% inhibition of enzyme activity.
(§3) In this respect, IC50 values which are less than 0.01 μM were marked as “+++”, which are from 0.01 to 0.1 μM were marked as “++”, and which are greater than 0.1 and up to 10.0 μM were marked as “+”, and NA meant “not detected”.

[2] = system: Phosphorylated eIF4E; assay: Intracellular peIF4E signaling assay; assay type: cell-based; details: 2 h; two hours incubation at 37° C.; read-out: peIF4E signaling cell assay IC50
Experimental: Phosphorylated eIF4E was determined using CisBio peIF4E assay kit (CisBio, catalog number 64EF4PEG). The cells were plated in a 96-well cell culture plate in a volume of 90 μL, and the number of cells per well was 5*10^4. The compounds (10×) were subjected to 3-fold serial dilution, added to the cell plate in a volume of 10 μL with the final DMSO concentration being 1%, and incubated at 37° C. for two hours. The cell plate was centrifuged at 300 g for 5 minutes, and the cell supernatant was carefully removed. The cell plate was immediately added with 50 μL of cell lysis buffer […] and incubated at 25° C. with shaking for at least 30 minutes. After homogenization by pipetting, 16 μL of cell lysate was transferred from the 96-well cell culture plate to a 384-well small-volume microwell plate. According to the kit instruction, an antibody mixture solution was prepared with a detection buffer, and was added in a volume of 4 μL to the 384-well small-volume microwell plate containing the cell lysate. The plate was covered with a plate sealer, incubated overnight at 25° C., and was read for fluorescence emission at two different wavelengths (665 nm and 615 nm) on the EnVision microplate reader counter. The emission ratio was imported into a GraphPadPrism software to fit the compound concentration (IC50) required for 50% inhibition of enzyme activity.
In this respect, IC50 values which are less than 0.05 μM were marked as “+++”, which are from 0.05 to 1.0 μM were marked as “++”, and which are greater than 1.0 and up to 100 μM were marked as “+”, and NA meant “not detected”.

[3] = biological target: MNK1 (Homo sapiens, UniProt Q9BUB5); assay: MNK biological enzyme assay (HTRF kinase assay), MNK1; assay type: biochemical; parameters: purchased ThermoFisher PV6023; details: 3 ng/ul MNK1, 1 μM STK1 peptide, 100 μM ATP
Experimental: as §1, §2, §3

Sequence of MNK2 (Q9HBH9 whole entry): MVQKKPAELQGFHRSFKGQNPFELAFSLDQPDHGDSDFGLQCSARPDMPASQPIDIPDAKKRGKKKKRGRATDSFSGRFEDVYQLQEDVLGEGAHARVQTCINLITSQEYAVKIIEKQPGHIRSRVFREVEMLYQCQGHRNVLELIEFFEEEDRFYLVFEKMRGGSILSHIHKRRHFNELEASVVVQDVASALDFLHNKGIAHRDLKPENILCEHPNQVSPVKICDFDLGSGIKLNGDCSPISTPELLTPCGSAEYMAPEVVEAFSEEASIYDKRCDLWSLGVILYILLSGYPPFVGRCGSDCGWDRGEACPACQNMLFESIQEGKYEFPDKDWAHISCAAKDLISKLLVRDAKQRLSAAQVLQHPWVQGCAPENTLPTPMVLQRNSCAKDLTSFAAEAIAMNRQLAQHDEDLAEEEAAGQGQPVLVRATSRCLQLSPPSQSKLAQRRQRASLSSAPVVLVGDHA
Sequence of MNK1 (Q9BUB5 whole entry): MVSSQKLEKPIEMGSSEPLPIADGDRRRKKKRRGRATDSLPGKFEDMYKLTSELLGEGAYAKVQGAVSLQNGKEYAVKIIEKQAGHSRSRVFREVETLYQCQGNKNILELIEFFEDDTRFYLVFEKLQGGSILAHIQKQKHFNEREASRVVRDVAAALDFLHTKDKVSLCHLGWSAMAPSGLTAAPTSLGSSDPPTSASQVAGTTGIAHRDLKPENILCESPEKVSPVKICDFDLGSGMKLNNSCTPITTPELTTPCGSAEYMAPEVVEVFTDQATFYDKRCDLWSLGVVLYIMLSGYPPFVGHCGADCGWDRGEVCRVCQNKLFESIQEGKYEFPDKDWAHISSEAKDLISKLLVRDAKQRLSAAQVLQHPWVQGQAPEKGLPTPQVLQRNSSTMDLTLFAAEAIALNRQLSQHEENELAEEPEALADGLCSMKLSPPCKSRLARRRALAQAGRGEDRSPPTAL

Row | SMILES | IC50 [1] [nM] | IC50 [2] [nM] | IC50 [3] [nM]
1 | Cc1c2n(c(=O)c3[nH]c4cc(N)ncc4c(=O)c13)C(C)(c1ccccc1)NC2=O (centres unmarked) [Compound 7, 8-amino-3,12-dimethyl-3-phenyl-2,3-dihydroimidazo[1′,5′:1,6]pyrido[3,4-B][1,6]naphthyridine-1,5,11(6H)-trione] | 10 to 100 | 1000 to 100000 | 10 to 100
2 | Cc1c2n(c(=O)c3[nH]c4cc(N)ncc4c(=O)c13)C1(CCCC1)NC2=O [Compound 5, 8-amino-12-methyl-2H-spiro[cyclopentane-1,3-imidazo[1,5:1,6]pyridine[3,4-b][1,6]naphthyridine]-1,5,11(6H)-trione] | < 10 | < 50 | < 10
3 | Cc1c2n(c(=O)c3[nH]c4ccncc4c(=O)c13)C1(CCCCC1)NC2=O [Compound 15, 12′-methyl-1′H-spiro[cyclohexane-1,3′-imidazo[1′,5′:1,6]pyrido[3,4-b][1,6]naphthyridine]-1′,5′,11′(2′H,6′H)-trione] |  | 50 to 1000 | 
4 | Cc1c2n(c(=O)c3[nH]c4cc(N)ncc4c(=O)c13)C(C)(c1cccc(Cl)c1)NC2=O (centres unmarked) [Compound 13, 8-amino-3-(3-chlorophenyl)-3,12-dimethyl-2,3-dihydroimidazole[1′,5′:1,6]pyrido[3,4-b][1,6]naphthopyridin-1,5,11(6H)-trione] | 10 to 100 | 50 to 1000 | 10 to 100
5 | Cc1cc2c(cn1)Cc1c(C)c3n(c(=O)c1N2)C1(CCCCC1)NC3=O [Compound 12, 8,12-dimethyl-6,11-dihydro-1H-spiro[cyclohexane-1,3-imidazo[1,5:1,6]pyrido[3,4-b][1,6]naphthyridine]-1,5(2H)-dione hydrochloride] |  | 50 to 1000 | 
6 | Cc1c2c(c(=O)n3c1C(=O)NC31CCCCC1)Nc1cc(NC(=O)OC(C)(C)C)ncc1C2 [Compound 23, Tert-Butyl (12-methyl-1,5-dioxo-1,5,6,11-tetrahydro-2H-spiro[cyclohexane-1,3-imidazole[1,5:1,6]pyrido[3,4b][1,6]naphthalene]-8-yl)aminoformate] | < 10 | < 50 | < 10
7 | CNc1cc2c(cn1)Cc1c(C)c3n(c(=O)c1N2)C1(CCCCC1)NC3=O [Compound 22, 12′-methyl-8′-(methylamino)-6′,11′-dihydro-1′H-spiro[cyclohexane-1,3′-imidazo[1′,5′:1,6]pyrido[3,4-b][1,6]naphthopyridine]-1′,5′(2′H)-dione hydrochloride] | 10 to 100 | < 50 | 10 to 100
8 | Cc1c2n(c(=O)c3[nH]c4cc(N)ncc4c(=O)c13)C1(CCN(C)CC1)NC2=O [Compound 17, 8-amino-1′,12-dimethyl-2H-spiro[imidazo[1′,5′:1,6]pyrido[3,4-B][1,6]naphthyridine-3,4′-piperidine]-1,5,11(6H)-trione] |  | 1000 to 100000 | 
9 | Cc1c2c(c(=O)n3c1C(=O)NC3(C)c1cccc(F)c1)Nc1cc(N)ncc1C2 (centres unmarked) [Compound 10, hydrochloride] | 10 to 100 | 50 to 1000 | 10 to 100
10 | Cc1c2c(c(=O)n3c1C(=O)NC31CCCCC1)Nc1ccncc1C2 [Compound 16, 12-methyl-6,11-dihydro-1H-spiro[cyclohexane-1,3-imidazo[1,5:1,6]pyrido[3,4-b][1,6]naphthyridine]-1,5(2H)-dione hydrochloride] | < 10 | < 50 | 10 to 100
11 | Cc1c2n(c(=O)c3[nH]c4cc(N)ncc4c(=O)c13)C(C)(C)NC2=O [Compound 3] | 10 to 100 | 50 to 1000 | 10 to 100

Results, then the compound that gave them:

Row | IC50 [1] [nM] | IC50 [2] [nM] | IC50 [3] [nM] | SMILES
12 | 10 to 100 | 50 to 1000 | 10 to 100 | Cc1c2c(c(=O)n3c1C(=O)NC3(C)C)Nc1cc(N)ncc1C2 [Compound 4, 8-amino-3,3,12-trimethyl-2,3,6,11-tetrahydroimidazo[1,5′:1.6]pyrido[3,4-b][1,6]naphthyridine derivative-1,5-dione hydrochloride]
13 |  | 1000 to 100000 |  | C=CC1(CCO)NC(=O)c2c(C)c3c(=O)c4cnc(N)cc4[nH]c3c(=O)n21 (centres unmarked) [Compound 19, 8-amino-3-(2-hydroxyethyl)-12-methyl-3-ethenyl-2,3-dihydroimidazo[1′,5′:1,6]pyrido[3,4-b][1,6]naphthyridine-1,5,11(6H)-trione]
14 |  | 50 to 1000 |  | Cc1c2c(c(=O)n3c1C(=O)NC3(C)c1cccc(Cl)c1)Nc1cc(N)ncc1C2 (centres unmarked) [Compound 14, 8-amino-3-(3-chlorophenyl)-3,12-dimethyl-2,3,6,11-tetrahydroimidazole[1′,5′:1,6]pyrido[3,4-b][1,6]naphthyridine-1,5-dione hydrochloride]
15 | < 10 | < 50 | 10 to 100 | CCC(=O)Nc1cc2c(cn1)Cc1c(C)c3n(c(=O)c1N2)C1(CCCCC1)NC3=O [Compound 25]
16 | < 10 | < 50 | 10 to 100 | Cc1c2c(c(=O)n3c1C(=O)NC31CCCC1)Nc1cc(N)ncc1C2 [Compound 6, 8′-amino-12′-methyl-6′,11′-dihydro-2′H-spiro[cyclopentane-1,3′-imidazo[1′,5′:1,6]pyrido[3,4-b][1,6]naphthyridine]-1′,5′-dione]
17 |  | 1000 to 100000 |  | Cc1cc2[nH]c3c(=O)n4c(c(C)c3c(=O)c2cn1)C(=O)NC41CCCCC1 [Compound 11, 8′,12′-dimethyl-1′H-spiro[cyclohexane-1,3′-imidazo[1′,5′:1,6]pyrido[3,4-b][1,6]naphthyridine]-1′,5′,11′(2′H,6′H)-trione]
18 | 10 to 100 | < 50 | 10 to 100 | Cc1c2n(c(=O)c3[nH]c4cc(N)ncc4c(=O)c13)C1(CCCCC1)NC2=O [Compound 1, 8′-amino-12′-methyl-2′H-spiro[cyclohexane-1,3′-imidazo[1′,5′:1,6]pyrido[3,4-b][1,6]naphthyridine]-1′,5′,11′(6′H)-trione]
19 |  | 50 to 1000 | 10 to 100 | Cc1c2n(c(=O)c3[nH]c4cc(N)ncc4c(=O)c13)C(C)(c1cccc(F)c1)NC2=O (centres unmarked) [Compound 9, 8-amino-3-(3-fluorophenyl)-3,12-dimethyl-2,3-dihydroimidazo[1′,5′:1,6]pyrido[3,4-b][1,6]naphthopyridin-1,5,11(6H)-trione]
20 |  | 50 to 1000 |  | Cc1c2c(c(=O)n3c1C(=O)NC31CCN(C)CC1)Nc1cc(N)ncc1C2 [Compound 18, 8-amino-1′,12-dimethyl-6,11-dihydro-2H-spiro[imidazo[1′,5′:1,6]pyrido[3,4-b][1,6]naphthyridine-3,4′-piperidine]-1,5-dione]
21 | < 10 | < 50 | 10 to 100 | Cc1c2c(c(=O)n3c1C(=O)NC31CCCCC1)Nc1cc(NC(=O)C3CCC3)ncc1C2 [Compound 27]
22 | < 10 | < 50 | 10 to 100 | Cl.[2H]C1([2H])c2cnc(N)cc2Nc2c1c(C)c1n(c2=O)C2(CCCCC2)NC1=O [Compound 20, 8′-amino-12′-methyl-6′,11′-dihydro-2′H-spiro[cyclohexane-1,3′-imidazo[1′,5′:1,6]pyrido[3,4-b][1,6]naphthyridine]-1′,5′-dione-11′,11′-d2 hydrochloride]
23 |  | 50 to 1000 | 10 to 100 | Cc1c2c(c(=O)n3c1C(=O)NC3(C)c1ccccc1)Nc1cc(N)ncc1C2 (centres unmarked) [Compound 8, 8-amino-3,12-dimethyl-3-phenyl-2,3,6,11-tetrahydroimidazo[l′,5′:1,6]pyrido[3,4-b][1,6]naphthyridine-1,5-dione, hydrochloride]
